Data published in PMC8587043, “An Investigation into the Interaction between Double Hydroxide-Based Antioxidant Benzophenone Derivatives and Cyclooxygenase 2” (Molecules, 2021).

Key:
EA.hy926 cells = experiment: Protective effect against H2O2-induced oxidative damage, MTT assay; assay type: cell-based, human; details: for EC50: Homo sapiens, EA.hy 926, 4 h, protection against H2O2-induced damage (400 µmol·L^−1, 4 h), n = 3, mean ± SD; for protection rate compared with positive controls (fenofibrate and quereetin): statistical comparison
Method: Hydrogen peroxide (H2O2), a small molecule and functions as oxidative stress and a second messenger which contributes to cell damage or death, could directly induce inflammation in several cell lines. H2O2-induced cell damage is a commonly used model for antioxidant activity evaluation. […] Thus, the concentration of 400 µmol·L^−1 at 4 h was chosen as the model.
Compound SC2 stock solutions were prepared in DMSO. The stock solutions were diluted with FBS free DMEM to different target concentrations (DMSO concentrations ≤ 0.5% v:v). Cells (100 μL, 2 × 10^5 cells∙mL^−1) were seeded on 96-well plates and cultured for 24 h. The medium was then replaced with fresh media containing H2O2 with different concentrations (0, 100, 200, 300, 400, 500, and 600 μmol·L^−1 in FBS free DMEM) and compound SC2 (50, 40, 30, 20, 10 µmol·L^−1), which were transferred to the incubator and cultured for additional time (2, 4, and 6 h). The medium was then replaced with 100 μL of FBS free DMEM and MTT (10 μL, 5 mg·mL^−1 in PBS) and after 4 h the medium was replaced with DMSO (100 μL). A microplate reader (SpectraMaxPlus384, Molecular Devices, United States) was used to record the absorbance at 490 nm for each well of the plates. Cell viability was measured via MTT assay. Survival rate (%) = (Asample group/Acontrol group) × 100%.
Cells (100 μL, 2 × 10^5 cells·mL^−1) were seeded in 96-well plates for 24 h. Cells were treated with different groups and cell viability was measured via MTT assay. The protection rates to oxidative damage were determined and EC50 values were calculated. The protection rates to cells were calculated using the following formula: Protection rate (%) = (Apretreatment group − Amodel group)/(Acontrol group − Amodel group) × 100%.

COX2 = target: T1, COX2 (Homo sapiens, UniProt P35354); experiment: Fluorescence quenching of COX2 (Stern-Volmer, double logarithm, thermodynamic parameters); assay type: binding; details: for Kq (bimolecular quenching constant): Kq = Ksv/τ0
T1 construct: purchased Sino Biological Co. (Beijing, China)
T1 sequence (P35354 18-604): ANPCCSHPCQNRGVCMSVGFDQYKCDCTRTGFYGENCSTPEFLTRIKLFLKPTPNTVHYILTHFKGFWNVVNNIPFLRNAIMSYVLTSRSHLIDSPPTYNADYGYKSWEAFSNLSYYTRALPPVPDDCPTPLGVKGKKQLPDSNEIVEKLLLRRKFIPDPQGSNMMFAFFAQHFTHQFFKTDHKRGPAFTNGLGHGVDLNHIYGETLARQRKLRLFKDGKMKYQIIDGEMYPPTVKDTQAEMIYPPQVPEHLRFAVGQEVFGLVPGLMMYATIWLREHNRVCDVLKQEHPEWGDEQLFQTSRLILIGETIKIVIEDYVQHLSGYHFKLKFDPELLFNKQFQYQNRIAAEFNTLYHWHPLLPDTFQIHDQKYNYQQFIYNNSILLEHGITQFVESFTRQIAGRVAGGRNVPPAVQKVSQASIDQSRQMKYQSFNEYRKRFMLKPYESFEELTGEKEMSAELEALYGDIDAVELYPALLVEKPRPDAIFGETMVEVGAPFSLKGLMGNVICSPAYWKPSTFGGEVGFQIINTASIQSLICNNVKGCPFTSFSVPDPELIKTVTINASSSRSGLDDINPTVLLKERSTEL
Description: The emitted fluorescence spectra of COX2 solution (6.0 × 10^−8 mol∙L^−1) without and with an increasing concentration of compounds DB2, SC2 or YB2 (7.5 × 10^−6 mol∙L^−1 to 4.5 × 10^−5 mol∙L^−1) at different temperatures are shown in Figure 4a,b, Figure 4c,d or Figure 4e,f, respectively. […] The quenching constant Kq and Stern–Volmer constant Ksv at different temperatures are usually used to identify the quenching mechanisms, static or dynamic. The former is caused by ground-state complex formation, the latter is diffusion. For the static quenching mechanism, the quenching constant decreases with temperature increase. In this part, we calculated the Kq and Ksv values by using a universally accepted Stern–Volmer equation [38]:(1) F0/F=1+Kqτ0[Q]=1+Ksv[Q] where F0 and F are the protein fluorescence intensities in the absence and the presence of quencher (compounds DB2, SC2 or YB2), respectively. Kq = Ksv/ τ0 . τ0 is the fluorescence lifetime of the fluorophore without the quencher ([…]). [Q] is the concentration of quencher. The Stern-Volmer plots of COX2 fluorescence quenching by compounds DB2, SC2 or YB2 are presented in Figure 5a, Figure 5b or Figure 5c, respectively. According to Table 1, the Ksv and Kq values for all three systems (COX2-DB2, COX2-SC2 and COX2-YB2) decreased with increasing temperature. Therefore, we considered that the quenching was static quenching. To further verify that the system was static quenching, dynamic quenching was assumed first.
For the static quenching, we can use the double logarithm equation to obtain the binding constant (KA) and the number of binding sites per protein (n):(2) lgF0−F/F=lgKA+nlg[Q]
There are four main kinds of non-covalent forces between drugs and proteins. These are electrostatic force, hydrogen bonding, hydrophobic force and van der Waals force. The kind of interaction between compounds DB2, SC2 or YB2 and COX2 can be obtained from thermodynamic parameters, including the free energy change (ΔG), enthalpy change (ΔH) and entropy change (ΔS) of the reaction. The three thermodynamic parameters can be obtained according to the published equations [42, 44]:(3) ΔG=−RTlnK (4) lnK2/K1=ΔH(1/T1−1/T2)×1/R (5) ΔG=ΔH−TΔS
The fluorescence intensity of the system was measured with a 1.0 cm quartz cell. COX2 protein was dissolved in PBS for a final concentration of 6.0 × 10^−8 mol∙L^−1. DB2, SC2 or YB2 stock solutions were prepared in singleton at 1.5 × 10^−3 mol∙L^−1 in PBS containing 0.1% DMSO. 2.0 mL COX2 solution was separately titrated by continuing additions of 10 μL compounds DB2, SC2 or YB2 solution). After incubation at 298 K or 310 K, fluorescence quenching spectra were recorded in the region 325-450 nm at a scan rate of 1200 nm∙min^−1. The local environment of Tyr and Trp residues was quite sensitive at 280 nm, so the excitation wavelength was set at this wavelength. Typically, 280 nm is also used to measure the changes in protein tertiary structure. The slit widths of emission and excitation were both fixed at 10 nm. To observe spectra behaviors of Tyr and Trp groups of COX2, the wavelength interval between the excitation and emission wavelengths (Δλ) was set as 15 nm and 60 nm, respectively. Three-dimensional fluorescence spectroscopy was obtained for an excitation range of 200–300 nm and an emission range of 325–400 nm. Appropriate buffer solutions, determined under the same operation conditions, were used as blanks. Each spectrum was recorded three times.

Compound	EC50 (EA.hy926 cells) [nM]	protection rate compared with positive controls (fenofibrate and quereetin) (EA.hy926 cells)	further results
CCCCc1ccc(C(=O)c2cc(O)c(O)cc2Br)cc1 [DB1]	7080 ± 92.6		
CCCCc1ccc(C(=O)c2cc(O)c(O)cc2Cl)cc1 [DC1]	3310 ± 242		
CCCCc1ccc(C(=O)c2c(Cl)cc(O)c(O)c2O)cc1 [DC2]	1550 ± 924	no significant difference	
O=c1c(O)c(-c2ccc(O)c(O)c2)oc2cc(O)cc(O)c12 [Quereetin, quercetin, reference compound]	7980 ± 1230		
CC(C)(C)c1ccc(C(=O)c2cc(O)c(O)cc2Br)cc1 [SB1]	12 ± 4.8	no significant difference	
CC(C)(C)c1ccc(C(=O)c2c(Br)cc(O)c(O)c2O)cc1 [SB2]	25.2 ± 12.2	no significant difference	
CC(C)(C)c1ccc(C(=O)c2cc(O)c(O)cc2Cl)cc1 [SC1]	1910 ± 521	no significant difference	
CC(C)Cc1ccc(C(=O)c2cc(O)c(O)cc2Br)cc1 [YB1]	8510 ± 957		
CC(C)Cc1ccc(C(=O)c2cc(O)c(O)cc2Cl)cc1 [YC1]	1910 ± 823		
CC(C)Cc1ccc(C(=O)c2c(Cl)cc(O)c(O)c2O)cc1 [YC2]	3850 ± 925	no significant difference	
[3-isobutyl-4-methoxy-5 -(pyrrolidine-1-carbonyl)-phenyl]-butyric acid ethyl ester [Control compound, reference compound]			KA (binding constant) (COX2; 298 K): 4436.3 ± 718.24 L/mol; Ksv (Stern-Volmer quenching constant) (COX2; 298 K): 1.71 ± 0.297 ×10^4 L∙mol^−1; n (number of binding sites per protein) (COX2; 298 K): 0.947 ± 0.116; Kq (bimolecular quenching constant) (COX2; 298 K): 1.71 ± 0.297 ×10^12 L∙mol^−1∙S^−1; KA (binding constant) (COX2; 310 K): 1417.0 ± 92.261 L/mol; Ksv (Stern-Volmer quenching constant) (COX2; 310 K): 1.05 ± 0.157 ×10^4 L∙mol^−1; n (number of binding sites per protein) (COX2; 310 K): 0.785 ± 0.0195; Kq (bimolecular quenching constant) (COX2; 310 K): 1.05 ± 0.157 ×10^12 L∙mol^−1∙S^−1
